The record followed here is PubChem BioAssay (NCI).

Test systems include SF-268 CNS; HOP-62 NSCLC; COLO 205 colon; NCI-H522 lung; SNB-75 CNS; SNB-19 CNS; 786-0 renal; TK-10 renal; NCI/ADR-RES ovarian.
Experiment in all cases: NCI-60 cell line screen, 48 h

Several values for one entry are separate records, joined by “and”; a condition that tells them apart may be missing. Equal values may be shown once.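 Following 48 hours of exposure in 96-well plates, responses at five concentrations were used to interpolate endpoints linearly. GI50 marks 50% less growth. TGI: total growth inhibition.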

As for `CSc1nc2nn(Cc3ccccc3)cc2c(=O)[nH]1`, the TGI in the test on SF-268 CNS, in the test with HOP-62 NSCLC, in the test on COLO 205 colon, with NCI-H522 lung, with SNB-75 CNS and with SNB-19 CNS was above 100 µM throughout. The TGI in the test on 786-0 renal and in the test with TK-10 renal was above 100 µM throughout.
As to `COc1cc(CNCCN2C(=O)c3ccc4c5c(ccc(c35)C2=O)C(=O)N(CCNCc2cc(OC)c(OC)c(OC)c2)C4=O)cc(OC)c1OC`, the GI50 is 0.786 µM with SF-268 CNS; 0.28 µM in the test on HOP-62 NSCLC; 0.177 µM with COLO 205 colon; 2.05 µM with NCI/ADR-RES ovarian; 0.123 µM in the test with NCI-H522 lung; 0.232 µM in the test with SNB-75 CNS. Further, the GI50 with SNB-19 CNS was 0.827 µM; in the test with 786-0 renal, 0.145 µM; with TK-10 renal, 0.78 µM. The TGI with SF-268 CNS amounted to 2.37 µM; in the test on HOP-62 NSCLC it was 0.999 µM; in the test on COLO 205 colon, 0.673 µM; in the test on NCI/ADR-RES ovarian, 50 µM; with NCI-H522 lung, 0.496 µM; in the test on SNB-75 CNS, 0.826 µM. The TGI amounted to 1.84 µM in the test on SNB-19 CNS, 0.391 µM with 786-0 renal and 1.51 µM in the test on TK-10 renal.
Consider `Cc1[nH]c2ccccc2c1CC/C(=N\Nc1ccccc1)c1ccccc1`, for which the TGI in the test with HOP-62 NSCLC, in the test with SNB-75 CNS, with 786-0 renal and in the test with TK-10 renal was above 100 µM each time.
Regarding `CCOc1ccc(/C=C/c2cc(OC)c(OC)c(OC)c2)cc1`, the TGI with SF-268 CNS is above 25.8 µM; with HOP-62 NSCLC it was 35.9 µM; in the test with COLO 205 colon, 2.5 µM; with NCI-H522 lung, 2.21 µM; in the test on SNB-75 CNS it was above 64.1 µM; in the test on SNB-19 CNS, above 83.6 µM. For the same molecule, the figures for the TGI in the test with 786-0 renal and with TK-10 renal were 37.4 µM and above 100 µM, respectively.
As for `C[C@@H](NS(=O)(=O)c1ccc(NC(=O)c2ccccc2)cc1)C(=O)O`, the TGI with SF-268 CNS, with COLO 205 colon, in the test on NCI-H522 lung, with SNB-75 CNS, in the test with SNB-19 CNS and in the test with 786-0 renal was above 100 µM throughout. In the test with TK-10 renal, this molecule yielded a TGI above 100 µM.
Consider `OCC[N+]12CCCN1CCC2`, for which the TGI in the test with SF-268 CNS, in the test on HOP-62 NSCLC, in the test on COLO 205 colon, in the test with NCI-H522 lung, in the test with SNB-75 CNS and in the test with SNB-19 CNS was above 100 µM each time. Further, the TGI in the test on 786-0 renal and with TK-10 renal was above 100 µM in each case.
Take `CN(C)CCC(CCN(C)C)=NO`: the TGI with SF-268 CNS, with HOP-62 NSCLC, in the test on COLO 205 colon, with NCI-H522 lung, in the test with SNB-75 CNS and in the test on SNB-19 CNS was above 100 µM each time. The TGI with 786-0 renal and with TK-10 renal was above 100 µM in each case.
For the molecule `CCOC(=O)C(CCC(N)=O)(CCC(=O)OC)C(=O)OCC`, the TGI in the test with SF-268 CNS, in the test with HOP-62 NSCLC, with COLO 205 colon, in the test with NCI-H522 lung, with SNB-75 CNS and in the test with SNB-19 CNS was above 100 µM in each case. In addition, the TGI in the test on 786-0 renal and in the test with TK-10 renal was above 100 µM throughout.
Consider `COC(=O)c1ncc2c(=O)[nH]c3ccccc3c2c1C(=O)OC`, for which the TGI in the test on SF-268 CNS, in the test on HOP-62 NSCLC, in the test with SNB-75 CNS, in the test with SNB-19 CNS, in the test on 786-0 renal and in the test with TK-10 renal was above 100 µM throughout.
As for `CC(=O)O[C@H]1CCN2C(=O)C=CC(OCc3ccccc3)C12` (some centres undefined), the TGI with SF-268 CNS, with HOP-62 NSCLC, in the test on COLO 205 colon, with SNB-75 CNS, in the test with 786-0 renal and in the test with TK-10 renal was above 100 µM each time.
As to `O=C(/C=C/c1ccccc1O)c1ccc([N+](=O)[O-])cc1`, the TGI turned out to be 66.9 µM in the test with SF-268 CNS; 32.4 µM in the test with HOP-62 NSCLC; 27.4 µM with COLO 205 colon; 33.1 µM in the test with NCI-H522 lung; 31.6 µM with SNB-75 CNS; 35.8 µM in the test on SNB-19 CNS. The TGI in the test with 786-0 renal amounted to 32.6 µM; in the test on TK-10 renal, 77.2 µM.
For the molecule `C=CC(=O)NC(N)=NC#N`, the TGI in the test with SF-268 CNS was 260 µM; with HOP-62 NSCLC, 423 µM; in the test with COLO 205 colon, 280 µM; in the test on NCI-H522 lung, 36.9 µM and 4.09 µM; with SNB-75 CNS, 289 µM; in the test with SNB-19 CNS, 523 µM. Also, the results for the TGI in the test on 786-0 renal and in the test on TK-10 renal were 300 µM and 272 µM, respectively. Besides, the GI50 with NCI-H522 lung was 1.95 µM.
Take `O=C1C(=C([O-])c2ccccc2)C(=O)c2ccccc21.O=C1C(=C([O-])c2ccccc2)C(=O)c2ccccc21.[Mn+2]`: the GI50 in the test on SNB-75 CNS is above 100 µM; in the test with SNB-19 CNS it was 76.7 µM; in the test with 786-0 renal it was above 100 µM; with TK-10 renal it was above 100 µM. For the same molecule, the TGI in the test with SNB-75 CNS, in the test with SNB-19 CNS, in the test on 786-0 renal and with TK-10 renal was above 100 µM each time.
Turning to `N#CCC(=O)N/N=C1/C(=O)N(c2cc(Cl)ccc2Cl)C(=O)C(=O)C1c1nc2ccccc2s1` (centres undefined), the TGI with SF-268 CNS, in the test with HOP-62 NSCLC, in the test with COLO 205 colon, in the test on NCI-H522 lung, with SNB-75 CNS and in the test on SNB-19 CNS was above 100 µM each time. The TGI in the test on 786-0 renal and with TK-10 renal was above 100 µM in each case.
Take `CC(C)(C)C(=O)Nc1cccc2oc(-c3ccccc3)cc12`: the TGI in the test with HOP-62 NSCLC, in the test with COLO 205 colon, in the test with SNB-75 CNS, with SNB-19 CNS and in the test on 786-0 renal was above 100 µM each time.
